Patent US9546157B2, “Asymmetric piperidinyl-substituted ureas as medicines” (Helsinn Healthcare SA, priority 2014, dated 2017)
“Also recorded” adds a separate entry of the source.

Assays:
[1] = target: T1, GHSR1a (Homo sapiens, UniProt Q92847); assay: Calcium FLIPR assay, GHSR-1a antagonism (reduction of ghrelin response); type: cell-based; conditions: HEK293/GHSR1a cells, ghrelin 10 nM
T1 construct: expressed in transfected cells; host or cells: HEK293
Method in brief: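 Calcium flux measured by FLIPR in GHSR1a-expressing HEK293 cells after 30-60 min dye preloading. Compound was added at t=20 sec, alone for agonism or with ghrelin (10 nM) for antagonism, and fluorescence recorded for 2 minutes. EC50 and IC50 were estimated from dose-response data.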

[2] = system: C57BL/6J mice; assay: Food intake test in mouse (GHSR1a antagonists); type: in vivo; conditions: for inhibition in vivo at 30 mg/kg / inhibition in vivo at 10 mg/kg: Mus musculus, po
Method in brief: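 Male C57BL/6J mice (18-22 g) were fasted overnight (16 h before dosing), then randomized by body weight to vehicle or test agent (n=6 each). Cumulative food intake was measured at 1, 2, 4, 8 and 24 hrs post-dose as premeasured food minus uneaten food.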

[3] = system: female Sprague-Dawley rats; assay: Binge eating model in non-estrous female rats (food restriction + stress, HPF intake); type: in vivo, rat; conditions: for 2-h chow food intake during binge eating test / 24-h chow food intake after binge eating test: acute administration (compounds 3 and 30 mg/kg, Topiramate 60 mg/kg)
Procedure: In this Example, the therapeutic potential of compounds were tested for their ability to inhibit binge eating. The animal model used was developed to explore the combination of food restriction and stress. […] Considering the reliability and the robustness of this model, it was adopted to test the inventive compounds.
A total of N=117, 52-day-old female Sprague-Dawley rats (175-200 g) were used. Rats were acclimated in individual cages with metallic walls; the floor and the front wall made of metallic grid. The dimensions of the cage floor being 30 cm×30 cm; the cage is 30 cm high. A front door (30 cm×20 cm) made of metallic grid was positioned in the anterior wall of the cage to gain access to the inside of the cage; the remaining part of the front wall was equipped with a drinking burette.
Rats were kept in a room at constant temperature (20-22° C.) and humidity (45-55%) under a 12-h light/dark cycle (lights on at 08:00 am) with ad lib chow and water. All procedures were conducted in adherence to the European Community Directive for Care and Use of Laboratory Animals.
Rats were offered food pellets, 4RF18, Mucedola, Settimo Milanese, Italy (2.6 kcal/g). The Highly Palatable Food (HPF) was prepared by mixing:
Rats were exposed to 3 consecutive 8-day cycles followed by the final test on day 25:
a) the control group (NR+NS) had chow ad libitum for 4 days, on days 5-6 it received chow+HPF for 2 h; on days 7-8 it had chow ad libitum; on day 25 it was not exposed to stress;
b) the second group (R+S) had chow restricted to 66% of the normal intake for 4 days, was offered chow and HPF (2 h) on days 5-6 and only chow on days 7-8; on day 25 it […].
Body weights and food intake were recorded daily. Food intake is expressed as mean kilocalories per kilogram ingested±SEM.
Therefore, immediately after the test on day 25, vaginal smears were collected and analyzed under microscope to assess the ovarian phase, and data from rats in the estrous phase were not included in the statistical analysis. Vaginal smears were analyzed by an experienced experimenter blind to treatment conditions.
For 15 min, the container (China coffee cup) containing HPF is placed outside the cage; the container handle is hooked to the top wire wall of the cage in the hollow part where food pellets are usually offered. In these conditions, the animal is able to see the cup in which it received HPF on days 5, 6, 13, and 14 of the first two cycles, is able to see in part the HPF itself, and is able to smell its odour. In this 15-min period, the rat engages in repeated movements of the forepaws, head, and trunk aimed at obtaining the HPF, but it is not able to reach it. Rats undergo the stressful procedure between 10.00 and 12.00 am. After 15 min, the cup is placed inside the cage of the rats in the stress group (R+S), so that the HPF became accessible to the rat.
100 mg of each compound (H0816, H0860, H0847 and H0900) was accurately weighed and suspended in 13.33 ml of 0.5% carboxymethyl cellulose sodium salt (CMC, Sigma-Aldrich Cat. C4888, lot 120M0216V) solution. The lower dose solution was prepared by dilution of 30 mg/ml suspension with 0.5% CMC solution. Suspensions were prepared freshly on test day. Vehicle was composed by a solution of 0.5% carboxymethyl cellulose sodium salt and was prepared by dissolving 1 g of CMC in 200 ml of distilled water. 180 mg of Topiramate was accurately weighed and suspended in 12 ml of 0.5% CMC solution. Compounds (vehicle and active principles) were administered by gavage in a volume of 4 ml/kg of body weight one hour before access to HPF.
All data are expressed as the mean±s.e.m. and each value reflects the mean number of animals per group as described in the legends. For data evaluation, the analysis of variance (ANOVA) was used followed by post-hoc (Bonferroni's) test when appropriate. Statistical significance was set at P<0.05. The Software used for the Graphs was Origin 7.0. […]

[4] = Metabolic Stability (H = Human); type: in vitro ADME
[5] = Metabolic Stability (M = Mouse); type: in vitro ADME
[6] = first test, 30 mg/kg by gavage 1 h before access to HPF, vs R+S vehicle
[7] = first test, 3 and 30 mg/kg by gavage
[8] = first test, doses of 3 and 30 mg/kg by gavage, acute administration
[9] = second test, H0816 3, 10 and 30 mg/kg, Topiramate 60 mg/kg

T1 sequence (Q92847 whole entry): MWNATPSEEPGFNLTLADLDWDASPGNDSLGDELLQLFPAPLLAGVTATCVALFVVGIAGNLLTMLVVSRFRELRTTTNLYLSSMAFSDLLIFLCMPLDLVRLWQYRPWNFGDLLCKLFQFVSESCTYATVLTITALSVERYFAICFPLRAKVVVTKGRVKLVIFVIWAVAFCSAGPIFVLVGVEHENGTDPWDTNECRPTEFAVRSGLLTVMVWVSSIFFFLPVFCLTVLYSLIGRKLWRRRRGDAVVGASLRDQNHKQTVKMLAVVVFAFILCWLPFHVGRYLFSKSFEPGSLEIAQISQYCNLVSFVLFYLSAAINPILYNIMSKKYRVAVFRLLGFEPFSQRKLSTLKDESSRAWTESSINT

SMILES	IC50 [1] [nM]	HPF intake (binge eating) in R+S rats, post-hoc [3, 6]	animals' gross behaviour during the 2-h test [3, 7]	2-h chow food intake during binge eating test ([3]; first test)	24-h chow food intake after binge eating test ([3]; first test)	2-h HPF intake (binge eating) in R+S rats, overall (ANOVA) [3, 8]	Metabolic Stability H [4]	Metabolic Stability M [5]	also measured
C[C@H](NC(=O)N(C)C1CCN(C)CC1)c1ccc(-c2cnccn2)c(Cl)c1Cl [Compound H0816, (S)-3-(1-(2,3-dichloro-4-(pyrazin-2-yl)phenyl)ethyl)-1-methyl-1-(1-methylpiperidin-4-yl)urea]	5.1	statistically significant (P<0.05) at 15 min time point	did not affect animals' gross behaviour	did not modify 2-h chow intake	did not modify 24-h chow intake	reduced binge eating episodes; also recorded: significant difference; also recorded: significantly reduced BE behaviour	–	–	inhibition in vivo at 30 mg/kg ([2]; 30 mg/kg PO fasted mice, time not given): 12%; HPF intake (binge eating) in R+S rats, post-hoc ([3]; second test, 10 mg/kg by gavage 1 h before access to HPF): statistically significant (P<0.05) at 15 min time point; HPF intake (binge eating) in R+S rats, post-hoc ([3]; second test, 30 mg/kg by gavage 1 h before access to HPF): completely blocked (P<0.01) the BE episode at 15 min; animals' gross behaviour during the 2-h test ([3]; second test, 3, 10 and 30 mg/kg by gavage): did not affect animals' gross behaviour; 2-h chow intake [3, 9]: did not modify; 24-h chow intake [3, 9]: did not modify; 2-h HPF intake (binge eating) in R+S rats, overall (ANOVA) ([3]; second test, doses of 3, 10 and 30 mg/kg by gavage): significant difference; also recorded: confirmed, dose dependently, its selective inhibitory effect on BE
C[C@H](NC(=O)N(C)C1CCN(C)CC1)c1ccc(-c2cncc(F)n2)c(Cl)c1Cl [Compound H0847, (S)-3-(1-(2,3-dichloro-4-(6-fluoropyrazin-2-yl)phenyl)ethyl)-1-methyl-1-(1-methylpiperidin-4-yl)urea]	2	significantly (P<0.01) reduced HPF intake at all time points	mild sedation	significantly increased 2-h chow food intake	significantly increased 24-h chow food intake	reduced binge eating episodes; also recorded: significant difference; also recorded: significantly reduced BE behaviour	High H High M	High H High M	Mouse Food Intake, result in words ([2]; PO 10 mg/kg + ANA (ANAM) 30 mg/kg mice): PO 10 mg/kg + ANA 30 mg/kg mice: NSE; HPF intake (binge eating) in R+S rats, post-hoc ([3]; first test, 3 mg/kg by gavage 1 h before access to HPF, vs R+S vehicle): statistically significant at 15, 30 and 60 min after HPF access
CC[C@H](NC(=O)N(C)C1CCN(C)CC1)c1ccc(-c2cnccn2)c(Cl)c1Cl [Compound H0860, (S)-3-(1-(2,3-dichloro-4-(pyrazin-2-yl)phenyl)propyl)-1-methyl-1-(1-methylpiperidin-4-yl)urea]	3	–	–	significantly increased 2-h chow food intake	significantly increased 24-h chow food intake	not statistically significant; also recorded: did not significantly reduce HPF intake; also recorded: did not affect HPF intake	High H High M	High H High M	inhibition in vivo at 10 mg/kg ([2]; 1 h, PO 10 mg/kg + ANA 30 mg/kg mice): 68%
CN1CCC(N(C)C(=O)N[C@H](c2ccc(-c3cnccn3)c(Cl)c2Cl)C(F)(F)F)CC1 [Compound H0900, (R)-3-(1-(2,3-dichloro-4-(pyrazin-2-yl)phenyl)-2,2,2-trifluoroethyl)-1-methyl-1-(1-methylpiperidin-4-yl)urea]	3	statistically significant (P<0.01) at all time points	did not affect animals' gross behaviour	did not modify 2-h chow intake	did not modify 24-h chow intake	reduced binge eating episodes; also recorded: significant difference; also recorded: significantly reduced BE behaviour	Medium	High	inhibition in vivo at 10 mg/kg ([2]; 1 h, PO 10 mg/kg + ANA 30 mg/kg fed mice): 60%; inhibition in vivo at 30 mg/kg ([2]; 1 h, PO 30 mg/kg + ANA 30 mg/kg fed mice): 91%; inhibition in vivo at 30 mg/kg ([2]; 1 h, PO 30 mg/kg fasted mice): 26%; inhibition in vivo at 30 mg/kg ([2]; 1 h, PO 30 mg/kg fed mice): 90%
